Measurements reported in PubChem BioAssay (NCI).
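Growth conditions: 96-well plates. Treatment: test compound, 48 hours, 5 concentrations. Analysis: linear interpolation between bracketing concentrations; unreached endpoints set to highest concentration. Abbreviation: GI50, concentration required for 50% inhibition of growth. The concentration for full growth arrest is given as TGI.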

Experiments:
Experiment in all cases: NCI tumour cell line growth inhibition, 48 h
[1] = system: 786-0 renal
[2] = system: A498 renal
[3] = system: A549 NSCLC
[4] = system: ACHN renal
[5] = system: BT-549 breast
[6] = system: CAKI-1 renal
[7] = system: CCRF-CEM leukemia
[8] = system: COLO 205 colon
[9] = system: DU-145 prostate
[10] = system: EKVX NSCLC
[11] = system: HCC-2998 colon
[12] = system: HCT-116 colon
[13] = system: HCT-15 colon
[14] = system: HL-60(TB) leukemia
[15] = system: HOP-62 NSCLC
[16] = system: HOP-92 NSCLC
[17] = system: HS 578T breast
[18] = system: HT29 colon
[19] = system: IGROV1 ovarian
[20] = system: K-562 leukemia
[21] = system: KM12 colon
[22] = system: LOX IMVI melanoma
[23] = system: M14 melanoma
[24] = system: MALME-3M melanoma
[25] = system: MCF7 breast
[26] = system: MDA-MB-231 breast
[27] = system: MDA-MB-435
[28] = system: MDA-MB-468 breast
[29] = system: MOLT-4 leukemia

## Cn1cc(-c2nnc(N)nc2-c2c[nH]c3ccccc23)c2cc(Br)cnc21
[1]
  GI50: 9.51 µM
  TGI: 26.3 µM
[2]
  GI50: 12.3 µM
  TGI: 24.8 µM
[3]
  GI50: 12.7 µM
  TGI: 46.9 µM
[4]
  GI50: 5.41 µM
  TGI: 19.2 µM
[5]
  GI50: 5.94 µM
  TGI: 19.8 µM
[6]
  GI50: 10.7 µM
  TGI: 22.5 µM
[7]
  GI50: 4.8 µM
  TGI: 33.6 µM
[8]
  GI50: 7.03 µM
  TGI: 21.1 µM
[9]
  GI50: 14.5 µM
  TGI: 28.8 µM
[10]
  GI50: 13.2 µM
  TGI: 28.5 µM
[11]
  GI50: 10.1 µM
  TGI: 23.7 µM
[12]
  GI50: 8.67 µM
  TGI: 21.2 µM
[13]
  GI50: 4.68 µM
  TGI: 32 µM
[14]
  GI50: 4.63 µM
  TGI: 34.6 µM
[15]
  GI50: 9.73 µM
  TGI: 25.9 µM
[16]
  GI50: 4.44 µM
  TGI: 24.1 µM
[17]
  GI50: 4.92 µM
  TGI: 32 µM
[18]
  GI50: 10 µM
  TGI: 27.3 µM
[19]
  GI50: 2600 nM
  TGI: 17.3 µM
[20]
  GI50: 2990 nM
  TGI: > 100 µM
[21]
  GI50: 13.1 µM
  TGI: 27.6 µM
[22]
  GI50: 5.19 µM
  TGI: 26.5 µM
[23]
  GI50: 10.8 µM
  TGI: 23.9 µM
[24]
  GI50: 8.27 µM
  TGI: 20.7 µM
[25]
  GI50: 1500 nM
  TGI: 15 µM
[26]
  GI50: 7.8 µM
  TGI: 27.6 µM
[27]
  GI50: 3.11 µM
  TGI: 10.4 µM
[28]
  GI50: 2380 nM
  TGI: 12.8 µM
[29]
  GI50: 3.37 µM
  TGI: 27.3 µM
